Laboratory results published in patent US8124793B2, “Derivatives of ethylene methanedisulfonate as cancer chemotherapeutic agents” (priority 2007, dated 2012).

Experiments:
Format in all cases: cell-based
[1] = test system: BT-549; test: NCI screen, growth of human tumor cells: Breast Cancer BT-549
Procedure, shortened: (§1)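 At least 60 data points describe each compound tested by NCI. Cancer type, molar concentration in the screen and percent growth make up the recorded data.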

[2] = test system: OVCAR-3; test: NCI screen, growth of human tumor cells: Ovarian Cancer OVCAR-3; settings: OVCAR-3, 10^−4 molar
Procedure, shortened: as §1

[3] = test system: SF-295; test: NCI screen, growth of human tumor cells: CNS Cancer SF-295; settings: SF-295, 10^−4 molar
Procedure, shortened: as §1

[4] = test system: HCC-2998; test: NCI screen, growth of human tumor cells: HCC-2998 (listed under Non-Small Cell Lung)
Procedure, shortened: as §1

[5] = test system: SR; test: NCI screen, growth of human tumor cells: Leukemia SR; settings: SR
Procedure, shortened: as §1

[6] = test system: NCI-H226; test: NCI screen, growth of human tumor cells: Non-Small Cell Lung NCI-H226
Procedure, shortened: as §1

[7] = test system: MALME-3M; test: NCI screen, growth of human tumor cells: Melanoma MALME-3M; settings: MALME-3M, 10^−4 molar
Procedure, shortened: as §1

[8] = test system: CCRF-CEM; test: NCI screen, growth of human tumor cells: Leukemia CCRF-CEM; settings: CCRF-CEM
Procedure, shortened: as §1

[9] = test system: DU-145; test: NCI screen, growth of human tumor cells: Prostate Cancer DU-145; settings: DV-145, 10^−4 molar
Procedure, shortened: as §1

[10] = test system: KM12; test: NCI screen, growth of human tumor cells: Colon Cancer KM12; settings: KM12, 10^−4 molar
Procedure, shortened: as §1

[11] = test system: OVCAR-8; test: NCI screen, growth of human tumor cells: Ovarian Cancer OVCAR-8; settings: OVCAR-8 (Ovarian Cancer), 10^−4 molar
Procedure, shortened: as §1

[12] = test system: OVCAR-5; test: NCI screen, growth of human tumor cells: Ovarian Cancer OVCAR-5; settings: OVCAR-5, 10^−4 molar
Procedure, shortened: as §1

[13] = test system: CAKI-1; test: NCI screen, growth of human tumor cells: Renal Cancer CAKI-1; settings: CAKI-1, 10^−4 molar
Procedure, shortened: as §1

[14] = test system: U-251; test: NCI screen, growth of human tumor cells: CNS Cancer U-251; settings: U251, 10^−4 molar
Procedure, shortened: as §1

[15] = test system: OVCAR-4; test: NCI screen, growth of human tumor cells: Ovarian Cancer OVCAR-4; settings: OVCAR-4, 10^−4 molar
Procedure, shortened: as §1

[16] = test system: human cancer cells; test: NCI screen summary over the cancers tested (negative growth of human cancer cells); settings: for Percentage of cancers showing negative growth cancers tested: cancers with negative growth / cancers tested
Protocol: In the NCI screening process, each compound was tested and described by a minimum of 60 data points. The test data include, but are not limited to the type of cancer, the molar concentration used in the screen, and the percent growth of the cancer. In some cases, NMR and elemental analysis were used for structural assignment.
The derivatives in the tables are grouped using the same category as in the tables 1-6.

[17] = test system: COLO205; test: NCI screen, growth of human tumor cells: Colon Cancer COLO205
Procedure, shortened: as §1

[18] = test system: SNB-19; test: NCI screen, growth of human tumor cells: CNS Cancer SNB-19; settings: SNB-19, 10^−4 molar
Procedure, shortened: as §1

[19] = test system: TK-10; test: NCI screen, growth of human tumor cells: Renal Cancer TK-10; settings: TK-10, 10^−4 molar
Procedure, shortened: as §1

[20] = test system: NCI-H23; test: NCI screen, growth of human tumor cells: Non-Small Cell Lung NCI-H23
Procedure, shortened: as §1

[21] = test system: MDA-MB-435; test: NCI screen, growth of human tumor cells: Breast Cancer MDA-MB-435
Procedure, shortened: as §1

[22] = test system: MDA-MB-231/ATCC; test: NCI screen, growth of human tumor cells: Breast Cancer MDA-MB-231/ATCC; settings: MDA-MB-231/ATCC (Breast Cancer), 10^−4 molar
Procedure, shortened: as §1

[23] = test system: MOLT-4; test: NCI screen, growth of human tumor cells: Leukemia MOLT-4
Procedure, shortened: as §1

[24] = test system: LOXIMVI; test: NCI screen, growth of human tumor cells: Melanoma LOXIMVI; settings: LOXIMVI
Procedure, shortened: as §1

[25] = test system: PC-3; test: NCI screen, growth of human tumor cells: Prostate Cancer PC-3
Procedure, shortened: as §1

[26] = test system: HCT-15; test: NCI screen, growth of human tumor cells: Colon Cancer HCT-15; settings: HCT-15 (Colon Cancer), 10^−4 molar
Procedure, shortened: as §1

[27] = test system: AS49/ATCC; test: NCI screen, growth of human tumor cells: Non-Small Cell Lung AS49/ATCC; settings: A549/ATCC, 10^−4 molar
Procedure, shortened: as §1

[28] = test system: MCF7/ADR-RES; test: NCI screen, growth of human tumor cells: Breast Cancer MCF7/ADR-RES; settings: MCF7/ADR-RES (Breast Cancer), 10^−4 molar
Procedure, shortened: as §1

[29] = test system: HT29; test: NCI screen, growth of human tumor cells: Colon Cancer HT29
Procedure, shortened: as §1

[30] = test system: EKVX; test: NCI screen, growth of human tumor cells: Non-Small Cell Lung EKVX; settings: EKVX, 10^−4 molar
Procedure, shortened: as §1

Compound: Cc1ccc2ccccc2c1CC1S(=O)(=O)OCCOS1(=O)=O [NSC 679043, ethylene 2-methyl-1-naphyl-1,1-ethanedisulfonate]
- % Growth ([1]; BT-549, 10^−4 molar): −82%
- % Growth ([1]; BT-549, 10^−5 molar): 57%
- % Growth [2]: −100%
- % Growth [3]: −88%
- % Growth ([4]; HCC-2998, 10^−4 molar): −88%
- % Growth ([4]; HCC-2998, 10^−5 molar): 22%
- % Growth ([5]; 10^−4 molar): −63%
- % Growth ([5]; 10^−5 molar): 42%
- % Growth ([6]; NCI-H226, 10^−4 molar): −63%
- % Growth ([6]; NCI-H226, 10^−5 molar): 49%
- % Growth [7]: −88%
- % Growth ([8]; 10^−4 molar): −49%
- % Growth ([8]; 10^−5 molar): 37%
- % Growth [9]: −100%
- % Growth [10]: −69%
- percent of growth of human tumor cells [11]: −53%
- % Growth [12]: −98%
- % Growth [13]: −100%
- % Growth [14]: −96%
- % Growth [15]: −97%
- percentage of cancers that had −100% growth ([16]; 10^−4 M conc.): 8%
- Percentage of cancers showing negative growth cancers tested ([16]; 10^−4 M conc.): 100%
- Percentage of cancers showing negative growth cancers tested ([16]; 10^−5 M conc.): 9%
- % Growth ([17]; COLO205, 10^−4 molar): −98%
- % Growth ([17]; COLO205, 10^−5 molar): −27%
- % Growth [18]: −95%
- % Growth [19]: −93%
- % Growth ([20]; NCI-H23, 10^−4 molar): −48%
- % Growth ([20]; NCI-H23, 10^−5 molar): 75%
- % Growth ([21]; MDA-MB-435, 10^−4 molar): −90%
- % Growth ([21]; MDA-MB-435, 10^−5 molar): 47%
- percent of growth of human tumor cells [22]: −12%
- % Growth ([23]; MOLT-4, 10^−4 molar): −46%
- % Growth ([23]; MOLT-4, 10^−5 molar): 36%
- % Growth ([24]; 10^−4 molar): −84%
- % Growth ([24]; 10^−5 molar): 45%
- % Growth ([25]; PC-3, 10^−4 molar): −91%
- % Growth ([25]; PC-3, 10^−5 molar): 57%
- percent of growth of human tumor cells [26]: −49%
- % Growth [27]: −77%
- percent of growth of human tumor cells [28]: −12%
- % Growth ([29]; HT-29, 10^−4 molar): −95%
- % Growth ([29]; HT-29, 10^−5 molar): 57%
- % Growth [30]: −98%
